Assay results published in US6027875A, “Receptor infection assay” (The Salk Institute for Biological Studies, priority 1991, dated 2000).
Where two headings read alike, the source gives them in different places.

Legend:
[1] = target: T1, human glucocorticoid receptor (GR) (Homo sapiens, UniProt P04150); conditions: 293 cell lysate, 20 µL/200 µL assayed
T1 sequence (P04150 1-777): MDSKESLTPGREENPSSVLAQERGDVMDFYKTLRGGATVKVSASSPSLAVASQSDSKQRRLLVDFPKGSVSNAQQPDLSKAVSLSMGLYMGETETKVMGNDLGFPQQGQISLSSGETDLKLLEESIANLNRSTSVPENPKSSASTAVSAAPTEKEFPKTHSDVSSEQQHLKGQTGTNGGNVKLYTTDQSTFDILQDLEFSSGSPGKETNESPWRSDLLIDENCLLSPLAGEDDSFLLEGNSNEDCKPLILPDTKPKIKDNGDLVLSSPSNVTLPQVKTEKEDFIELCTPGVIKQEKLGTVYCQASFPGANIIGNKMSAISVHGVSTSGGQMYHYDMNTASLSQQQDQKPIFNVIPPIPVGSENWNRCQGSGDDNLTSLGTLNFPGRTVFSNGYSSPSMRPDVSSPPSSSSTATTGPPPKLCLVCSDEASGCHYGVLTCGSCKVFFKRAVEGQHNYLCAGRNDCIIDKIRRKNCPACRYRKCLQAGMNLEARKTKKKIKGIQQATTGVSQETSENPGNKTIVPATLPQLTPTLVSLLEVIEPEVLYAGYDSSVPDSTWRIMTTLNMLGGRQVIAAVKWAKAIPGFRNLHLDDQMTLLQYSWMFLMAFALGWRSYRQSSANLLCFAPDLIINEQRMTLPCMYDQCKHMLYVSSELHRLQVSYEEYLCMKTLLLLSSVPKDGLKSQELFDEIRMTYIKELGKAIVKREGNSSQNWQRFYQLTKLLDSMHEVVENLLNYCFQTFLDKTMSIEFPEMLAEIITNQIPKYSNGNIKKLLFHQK
Experimental: The coinfection assay was carried out in the following manner. Twelve well dishes were seeded with 293 cells at a density of 1.2×10^5 cells per well and grown in Dulbecco's modified Eagle's medium (DME) supplemented with 10% fetal calf serum. Assuming that the hGR4, MLUC3, and dl 309 virus stocks were 10^8 PFU/ml, the next day cells were infected with various combinations of these stocks in triplicate at a multiplicity of infection corresponding to 50. Dexamethasone dissolved in 50% ethanol or the control vehicle alone were each diluted into DME supplemented with 10% charcoal-adsorbed fetal calf serum at a final concentration of 0.1 μM. These mixtures were added to cells adsorbed with virus for thirty minutes. Cells were harvested at 18, 22 and 89 hours after infection by scraping them from the plate and washing the cell pellets in phosphate-buffered saline, and resuspending them in 100 microliters of 100 mM K2 HPO4 (pH 7.8), 1 mM dithiothreitol). Cell lysates were prepared by three cycles of sequential freezing and thawing in a dry ice/ethanol and 37° C. baths. Cell debris was pelleted by centrifugation in a microcentrifuge for 5 minutes at 4° C. […] Luciferase enzyme activity was assayed by automatic injection of 1 mM d-luciferin (Analytical Luminescence Laboratories) as described in de Wet et al. Mol. Cell. Biol. 7, 725 (1987) using a Berthold luminometer.
The orientation is reversed relative to the major late promoter with the RSV long term repeat promoter driving the expression of the human glucocorticoid receptor DNA terminating with SV40 polyadenylation sequence. This orientation removes the tripartite leader from functioning in its usual manner. A separate vector for the receptor DNA is constructed similarly. The two vectors are separately used to infect 293 cells. First, 293 cells are infected with the vector bearing the human glucocorticoid receptor DNA. Successful infection can be tested by picking plaques and doing a Western analysis with human glucocorticoid receptor antibodies or one can measure the ligand binding properties of the extracts or one can do a restriction map analysis to assure proper infection with the human glucocoid receptor adenovirus DNA. Successfully infected cells are then infected with the reporter virus vector. Alternatively, both vectors could be mixed on, for example, 293 cells. Where host cells not bearing a complement of the adenovirus genome are used, one may coinfect with wild-type virus in order to supply the missing complement. […] The material to be tested may either be added in at the beginning or at such twenty-two hour period. The cells are then tested for measurement of the reporter activity. In the case of the exemplified luciferase gene, that measurement takes the form of quantitating light emission from luciferin oxidized by any luciferase present.

[2] = target: T1, human glucocorticoid receptor (GR); test: Functional assay with recombinant receptor (hGR4) and reporter (MLUC3) viruses in 293 cells, luciferase activity; conditions: 10^-7 M dex, 293 cells, 22 hours after infection, 0.1 µM
Description: A reporter virus (MLUC3; also variously referred to as Ad3MLUC, MpCV3MTV-LUC-Ad and ADMLUC) was constructed containing the mouse mammary tumor virus LTR linked to the firefly luciferase cDNA with an SV40 polyadenylation signal (Hollenberg, et al., Cell 55, 899 (1988)) similar to the receptor virus hGR4 above. The two viruses, hGR4 and MLUC3, were coinfected into 293 cells growing in DMEM suplemented with 10% charcoal adsorbed fetal calf serum ±10^-7 M dexamethasone (dex), and cellular extracts were prepared by Triton X-100™ brand non-ionic surfactant lysis at 22 hours after infection. (Williams, et al., Anal. Biochem 176, 28 (1989)) These were tested for luciferase activity by incubating with ATP and luciferin in a suitable buffer system. (de Wet, et al., Mol. Cell Biol. 7, 725 (1987)). Light liberated in this reaction was measured using a luminometer.

C[C@@H]1C[C@H]2[C@@H]3CCC4=CC(=O)C=C[C@]4(C)[C@@]3(F)[C@@H](O)C[C@]2(C)[C@@]1(O)C(=O)CO [DEX, Dexamethasone]
Response of cell lysate (luciferase activity), with CV ([1]; co-infection HGR + DL309, 18 HRS after co-infection, DEX 3 × 10^-9): 35 (28%)
Response of cell lysate (luciferase activity), with CV ([1]; co-infection HGR + DL309, 18 HRS after co-infection, DEX 10^-7 M): 33
Response of cell lysate (luciferase activity), with CV ([1]; co-infection HGR + DL309, 22 HRS after co-infection, DEX 3 × 10^-9): 40 (19%)
Response of cell lysate (luciferase activity), with CV ([1]; co-infection HGR + DL309, 22 HRS after co-infection, DEX 10^-7 M): 42 (38%)
Response of cell lysate (luciferase activity), with CV ([1]; co-infection HGR + DL309, 89 HR after co-infection, DEX 3 × 10^-9): 22 (14%)
Response of cell lysate (luciferase activity), with CV ([1]; co-infection HGR + DL309, 89 HR after co-infection, DEX 10^-7 M): 27 (4%)
Response of cell lysate (luciferase activity), with CV ([1]; co-infection HGR + MTV-LUC, 18 HRS after co-infection, DEX 3 × 10^-9): 30015
Response of cell lysate (luciferase activity), with CV ([1]; co-infection HGR + MTV-LUC, 18 HRS after co-infection, DEX 10^-7 M): 72864
Response of cell lysate (luciferase activity), with CV ([1]; co-infection HGR + MTV-LUC, 22 HRS after co-infection, DEX 3 × 10^-9): 48858 (14%)
Response of cell lysate (luciferase activity), with CV ([1]; co-infection HGR + MTV-LUC, 22 HRS after co-infection, DEX 10^-7 M): 90718 (18%)
Response of cell lysate (luciferase activity), with CV ([1]; co-infection HGR + MTV-LUC, 89 HR after co-infection, DEX 3 × 10^-9): 1246 (68%)
Response of cell lysate (luciferase activity), with CV ([1]; co-infection HGR + MTV-LUC, 89 HR after co-infection, DEX 10^-7 M): 1065 (7%)
Response of cell lysate (luciferase activity), with CV ([1]; co-infection MTV-LUC + DL309, 18 HRS after co-infection, DEX 3 × 10^-9): 3643 (20%)
Response of cell lysate (luciferase activity), with CV ([1]; co-infection MTV-LUC + DL309, 18 HRS after co-infection, DEX 10^-7 M): 19130
Response of cell lysate (luciferase activity), with CV ([1]; co-infection MTV-LUC + DL309, 22 HRS after co-infection, DEX 3 × 10^-9): 5095 (12%)
Response of cell lysate (luciferase activity), with CV ([1]; co-infection MTV-LUC + DL309, 22 HRS after co-infection, DEX 10^-7 M): 24215 (4%)
Response of cell lysate (luciferase activity), with CV ([1]; co-infection MTV-LUC + DL309, 89 HR after co-infection, DEX 3 × 10^-9): 53 (48%)
Response of cell lysate (luciferase activity), with CV ([1]; co-infection MTV-LUC + DL309, 89 HR after co-infection, DEX 10^-7 M): 151 (23%)
Response of cell lysate (luciferase activity), with CV ([1]; infection DL309 only, 18 HRS after co-infection, DEX 3 × 10^-9): 28 (5%)
Response of cell lysate (luciferase activity), with CV ([1]; infection DL309 only, 18 HRS after co-infection, DEX 10^-7 M): 32
Response of cell lysate (luciferase activity), with CV ([1]; infection DL309 only, 22 HRS after co-infection, DEX 3 × 10^-9): 42 (22%)
Response of cell lysate (luciferase activity), with CV ([1]; infection DL309 only, 22 HRS after co-infection, DEX 10^-7 M): 43 (11%)
Response of cell lysate (luciferase activity), with CV ([1]; infection DL309 only, 89 HR after co-infection, DEX 3 × 10^-9): 22 (24%)
Response of cell lysate (luciferase activity), with CV ([1]; infection DL309 only, 89 HR after co-infection, DEX 10^-7 M): 23 (7%)
Additional enhancement of the luciferase response by coinfection with hGR4 ([2]; MLUC3 + hGR4 (not with parental dl 309)): 5 fold
Stimulation of luciferase activity ([2]; MLUC3 alone): 10 fold
